According to patent publication US20230010299A1, “HETEROCYCLIC TRPML1 AGONISTS” (LIBRA THERAPEUTICS, INC., priority 2019, published 2023):

What was measured:
TRPML1 [1] = target: T1, TRPML1 (Homo sapiens, UniProt Q9GZU1); assay: Cellular TRPML1 assay (FLIPR TETRA, GCaMP6f calcium read-out); assay type: cell-based; details: HEK T-REx/GCaMP6f/TRPML1 cells; Ca2+ response over 300 s, normalized to ML-SA1 50 μM; Ca2+ free or Optimem condition not given; read-out: Ec50 (Activity of TRPML1 agonists)
T1 construct: expressed in transfected cells
T1 sequence (Q9GZU1 whole entry): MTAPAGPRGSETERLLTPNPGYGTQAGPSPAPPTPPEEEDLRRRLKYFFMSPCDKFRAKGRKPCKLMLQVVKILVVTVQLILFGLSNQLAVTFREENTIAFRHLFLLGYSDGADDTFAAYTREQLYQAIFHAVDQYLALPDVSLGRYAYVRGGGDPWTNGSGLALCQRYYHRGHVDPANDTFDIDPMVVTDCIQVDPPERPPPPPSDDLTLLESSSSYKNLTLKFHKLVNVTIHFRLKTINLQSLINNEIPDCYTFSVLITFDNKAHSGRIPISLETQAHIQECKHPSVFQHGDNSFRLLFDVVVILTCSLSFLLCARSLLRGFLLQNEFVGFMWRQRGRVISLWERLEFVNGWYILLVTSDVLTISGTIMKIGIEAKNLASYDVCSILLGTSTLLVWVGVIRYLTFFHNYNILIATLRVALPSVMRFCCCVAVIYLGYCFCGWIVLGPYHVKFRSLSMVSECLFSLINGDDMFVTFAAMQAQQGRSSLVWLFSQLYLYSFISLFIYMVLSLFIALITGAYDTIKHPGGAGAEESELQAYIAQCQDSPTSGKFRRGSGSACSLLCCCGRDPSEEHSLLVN
Outline: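 HEK T-REx cells stably expressing TRPML1 and GCaMP6f, assayed 24 h after seeding in Ca2+-free Tyrode's (pH 7.4) or Opti-MEM. Compounds injected on FLIPR Tetra (0.5% DMSO) in dose-response from 100 μM (1:2) or 50 μM (1:3.16); fluorescence kinetics 300 s, referenced to 50 μM ML-SA1 stimulator control.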

TRPML1 [2] = target: T1, TRPML1; assay: TRPML1 automated patch-clamp (QPatch 16X); assay type: cell-based; details: HEK T-REx/GcaMP6f/TRPML1 cells, current with compound/current in vehicle, extracellular pH 4.6
Experimental: TRPML1—Automated Patch-Clamp
HEK T-REx/GcaMP6f/TRPML1 cells were cultured in DMEM High Glucose (Lonza BioWhittaker cat. BE12-604F/U1; 500 mL) supplemented with Fetal Bovine Serum TET-FREE (Euroclone cat. EC S0182L; 50 mL, Penicillin-Streptomycin (BioWhittaker, cat. DE17-602E; 5 mL of 100× Solution), G418 (Sigma, cat. G8168; 0.25 mg/ml) and Zeocyn (InvivoGen, cat. ant-zn-1; 50 μg/ml).
HEK T-REx/GcaMP6f/TRPML1 cells were seeded 48 or 72 hours before experiment, at a concentration of 8*10^6/4*10^6 cells onto a T225 flask. Just before the experiments, cells were washed twice with D-PBS w/o Ca^2+/Mg^2+ (Euroclone cat. ECB4004L) and detached from the flask with trypsin-EDTA (Sigma cat. T4174; diluted 1/10). Cells were then re-suspended in the suspension solution: 25 mL EX-CELL ACF CHO medium(Sigma cat. C5467); 0.625 mL HEPES (Sigma cat. H0887); 0.25 mL of 100× Penicillin/Streptomycin (Euroclone cat. ECB3001D), 0.1 mL of Soybean Trypsin Inhibitor 10 mg/mL (Sigma cat. T6522) and placed on the QPatch 16X.
Dilution from stock were prepared just before the experiments in the extracellular solution (0.25% final DMSO concentration). DMSO solution was obtained from AppliChem (cat. A3672)
Patch Clamp Solutions: • Intracellular solution (mM): 120 CsMeSO3, 4 NaCl, 2 MgCl2, 10 EGTA, 20 HEPES, 2 Mg-ATP (pH 7.2 with CsOH). • Extracellular solution (mM): 140 NaGluconate, 5 KCl, 1 MgCl2, 2 CaCl2), 10 Glucose, 10 MES (pH 4.6 with HCl).
Patch Clamp Analysis—QPatch 16X
For the voltage clamp experiments on TRPML1, data were sampled at 5 KHz. After establishment of the seal and the passage in the whole cell configuration, the cells were held at −20 mV and the TRPML1 current was evoked using the voltage protocol illustrated in FIG. 2, applied every 5 sec. (50 ms at −20 mV; 20 ms at −120 mV, 1000 ms ramp from −120 to […]; 20 ms at +40 mV, and back to −20 mV); in the absence (vehicle period, i.e. 0.25% DMSO) and in the presence of increasing concentrations (3) of the compound under investigation.
Agonists: For data collection, the Sophion proprietary software was used and the analysis was performed off-line using Excel and GraphPad Prism (V 8.00). Results are reported in Table 6, expressed as TRPML1 current fold increase evoked by the compound under investigation (i.e. current in the presence of the compound/current in vehicle).

Row | SMILES | EC50 (TRPML1 [1]) [µM] | Qpatch Assay TRPML1 agonism Current fold increase Mean ± SEM (n) (TRPML1 [2]; 0.3 μM compound) | Qpatch Assay TRPML1 agonism Current fold increase Mean ± SEM (n) (TRPML1 [2]; 3.0 μM compound) | Qpatch Assay TRPML1 agonism Current fold increase Mean ± SEM (n) (TRPML1 [2]; 30 μM compound)
1 | CN(C)S(=O)(=O)c1ccc(S(=O)(=O)NCc2ccccc2N2CCCCC2)cc1 [Example 74, N1,N1-dimethyl-N4-{[2-(piperidin-1-yl)phenyl]methyl}benzene-1,4-disulfonamide] | 3.2 | 4.3 ± 2.0 (6) | 356 ± 69.7 (6) | 639 + 241 (3)
2 | CN(C)S(=O)(=O)c1ccc(S(=O)(=O)NC2CCCCC2N2CCC(Oc3ccccc3)CC2)cc1 (single isomer, unassigned) [Example 63, N1,N1-dimethyl-N4-[2-(4-phenoxypiperidin-1-yl)cyclohexyl]benzene-1,4-disulfonamide] | 1.7 | 0.042 ± 0.153 (2) | 0.86 ± 0.60 (2) | 4.3 ± 0.9 (2)
3 | CN(C)S(=O)(=O)c1ccc(S(=O)(=O)Nc2ccccc2N2CCC(Oc3ccccc3)CC2)cc1 [Example 24, N1,N1-dimethyl-N4-[2-(4-phenoxypiperidin-1-yl)phenyl]benzene-1,4-disulfonamide] | 2.1 | 4.6 ± 1.8 (4) | 168.8 ± 96.1 (4) | 687.7 (1)
4 | Cc1ccc(S(=O)(=O)Nc2ccccc2N2CCC(C(=O)OC(C)(C)C)CC2)cc1 [Example 90] | 2.5 | 140 ± 44.1 (4) | 83.1 ± 34.0 (2) | 112 ± 38.1 (2)
5 | CCCN(C)C(=O)N1CCN(c2ccccc2NS(=O)(=O)c2ccc(S(=O)(=O)N(C)C)cc2)CC1 [Example 82, 4-{2-[4-(dimethylsulfamoyl)benzenesulfonamido]phenyl}-N-methyl-N-propylpiperazine-1-carboxamide] | 5.9 | 2.5 ± 1.3 (3) | 12.5 ± 8.6 (3) | 138 ± 55.7 (3)
6 | CN(C)S(=O)(=O)c1ccc(S(=O)(=O)Nc2ccccc2N2CCN(C(=O)OCC(F)(F)F)CC2)cc1 [Example 53, 2,2,2-trifluoroethyl4-{2-[4-(dimethylsulfamoyl)benzenesulfonamido]phenyl}piperazine-1-carboxylate] | 3.6 | 1.9 ± 1.6 (3) | 88.3 ± 59.9 (3) | 257.4 ± 190.7 (3)
7 | CN(C)S(=O)(=O)c1ccc(S(=O)(=O)Nc2ccccc2N2CCN(C(=O)c3ccccc3)CC2)cc1 [Example 73, N4-[2-(4-benzoylpiperazin-1-yl)phenyl]-N1,N1-dimethylbenzene-1,4-disulfonamide] | 6.4 | −0.070 | −0.31 | 11.3
8 | COc1ccc(S(=O)(=O)Nc2ccccc2N2CCC(C(=O)OC(C)(C)C)CC2)cc1 [Example 91] | 3.3 | 3.1 ± 1.2 (3) | 21.7 ± 7.9 (3) | 58.8 ± 16.6 (3)
9 | COC(=O)N1CCN(c2ccccc2NS(=O)(=O)c2ccc(S(=O)(=O)N(C)C)cc2)CC1 [Example 52, methyl 4-{2-[4-(dimethylsulfamoyl)benzenesulfonamido]phenyl}piperazine-1-carboxylate] | 7.2 | 1.3 ± 1.0 (3) | 10.4 ± 3.8 (3) | 472.5 ± 267.9 (3)
10 | CC(C)CNC(=O)C1CCN(c2ccccc2NS(=O)(=O)c2ccc(S(=O)(=O)N(C)C)cc2)CC1 [Example 88, 1-{2-[4-(dimethylsulfamoyl)benzenesulfonamido]phenyl}-N-(2-methylpropyl)piperidine-4-carboxamide] | 6.5 | −0.066 ± 0.080 (3) | 3.9 ± 2.5 (3) | 125 ± 75.3 (3)
11 | COC1CCN(c2ccccc2NS(=O)(=O)c2ccc(S(=O)(=O)N(C)C)cc2)CC1 [Example 26, N4-[2-(4-methoxypiperidin-1-yl)phenyl]-N1,N1-dimethylbenzene-1,4-disulfonamide] | 4.5 | 0.46 ± 0.16 (3) | 41.4 ± 21.1 | 390 ± 158 (3)
12 | CN(C)S(=O)(=O)c1ccc(S(=O)(=O)Nc2ccccc2N2CCCCCC2)cc1 [Example 85, N4-[2-(azepan-1-yl)phenyl]-N 1 ,N1-dimethylbenzene-1,4-disulfonamide] | 1.6 | 17.7 ± 5.5 (4) | 206 ± 167 (2) | 260 ± 202 (2)
13 | CN(C)S(=O)(=O)c1ccc(S(=O)(=O)Nc2ccccc2C2CCN(C(=O)OC(C)(C)C)CC2)cc1 [Example 78, f-butyl 4-{2-[4-(dimethylsulfamoyl)benzenesulfonamido]phenyl} piperidine-1-carboxylate] | 6.9 | 0.68 ± 0.34 (3) | 16.5 ± 9.1 (3) | 166 ± 75.7 (3)
14 | CN(C)S(=O)(=O)c1ccc(S(=O)(=O)Nc2ccccc2N2CCC(OCc3ccccc3)CC2)cc1 [Example 25, N4-{2-[4-(benzyloxy)piperidin-1-yl]phenyl}-N1,N1-dimethylbenzene-1,4-disulfonamide] | 1.8 | 3.5 ± 1.8 (3) | 177.1 ± 38.2 (3) | 1013.8 (1)
15 | CCOC(=O)N1CCN(c2ccccc2NS(=O)(=O)c2ccc(S(=O)(=O)N(C)C)cc2)CC1 [Example 70, ethyl4-{2-[4-(dimethylsulfamoyl)benzenesulfonamido]phenyl}piperazine-1-carboxylate] | 3.2 | 0.5 ± 0.3 (3) | 22.5 ± 10.6 (3) | 656.7 ± 150.5 (3)
